Measurements as given in PubChem BioAssay (NCI).
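In this assay, cells in 96-well plates receive the compound at five concentrations for 48 hours. Endpoints are linearly interpolated between the surrounding concentrations. TGI denotes the concentration required for complete inhibition of growth.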

Assays:
Assay in all cases: inhibition of tumour cell growth, NCI panel, 48 h
MALME-3M melanoma = tested on: MALME-3M melanoma
SF-295 CNS = tested on: SF-295 CNS
MDA-MB-231 breast = tested on: MDA-MB-231 breast
CCRF-CEM leukemia = tested on: CCRF-CEM leukemia
HOP-62 NSCLC = tested on: HOP-62 NSCLC
MDA-MB-435 = tested on: MDA-MB-435
A498 renal = tested on: A498 renal
SK-MEL-2 melanoma = tested on: SK-MEL-2 melanoma
PC-3 prostate = tested on: PC-3 prostate
NCI-H23 lung = tested on: NCI-H23 lung
ACHN renal = tested on: ACHN renal
MDA-N = tested on: MDA-N
SF-268 CNS = tested on: SF-268 CNS
U251 CNS = tested on: U251 CNS
786-0 renal = tested on: 786-0 renal
EKVX NSCLC = tested on: EKVX NSCLC
MCF7 breast = tested on: MCF7 breast
IGROV1 ovarian = tested on: IGROV1 ovarian
M14 melanoma = tested on: M14 melanoma
HCT-15 colon = tested on: HCT-15 colon
MOLT-4 leukemia = tested on: MOLT-4 leukemia
RXF 393 renal = tested on: RXF 393 renal
HCC-2998 colon = tested on: HCC-2998 colon
OVCAR-8 ovarian = tested on: OVCAR-8 ovarian
UACC-257 melanoma = tested on: UACC-257 melanoma
HCT-116 colon = tested on: HCT-116 colon
UACC-62 melanoma = tested on: UACC-62 melanoma
NCI-H226 lung = tested on: NCI-H226 lung
BT-549 breast = tested on: BT-549 breast
SN12C renal = tested on: SN12C renal
LOX IMVI melanoma = tested on: LOX IMVI melanoma
OVCAR-5 ovarian = tested on: OVCAR-5 ovarian
NCI-H460 lung = tested on: NCI-H460 lung
HS 578T breast = tested on: HS 578T breast
SR leukemia = tested on: SR leukemia
RPMI-8226 leukemia = tested on: RPMI-8226 leukemia
KM12 colon = tested on: KM12 colon
K-562 leukemia = tested on: K-562 leukemia
SNB-19 CNS = tested on: SNB-19 CNS
COLO 205 colon = tested on: COLO 205 colon
SK-MEL-5 melanoma = tested on: SK-MEL-5 melanoma
CAKI-1 renal = tested on: CAKI-1 renal
SK-OV-3 ovarian = tested on: SK-OV-3 ovarian
T-47D breast = tested on: T-47D breast
HL-60(TB) leukemia = tested on: HL-60(TB) leukemia
A549 NSCLC = tested on: A549 NSCLC
UO-31 renal = tested on: UO-31 renal
TK-10 renal = tested on: TK-10 renal
OVCAR-4 ovarian = tested on: OVCAR-4 ovarian
SK-MEL-28 melanoma = tested on: SK-MEL-28 melanoma
SW-620 colon = tested on: SW-620 colon
DU-145 prostate = tested on: DU-145 prostate
HOP-92 NSCLC = tested on: HOP-92 NSCLC
NCI/ADR-RES ovarian = tested on: NCI/ADR-RES ovarian
NCI-H522 lung = tested on: NCI-H522 lung
HT29 colon = tested on: HT29 colon
SF-539 CNS = tested on: SF-539 CNS
SNB-75 CNS = tested on: SNB-75 CNS
OVCAR-3 ovarian = tested on: OVCAR-3 ovarian

CCOC(=O)CN1C(=O)c2c(NC(=O)C(=O)O)cccc2S1(=O)=O
TGI (MALME-3M melanoma): > 100 µM | TGI (SF-295 CNS): > 100 µM | TGI (MDA-MB-231 breast): > 100 µM | TGI (CCRF-CEM leukemia): > 100 µM | TGI (HOP-62 NSCLC): > 100 µM | TGI (MDA-MB-435): > 100 µM | TGI (A498 renal): > 100 µM | TGI (SK-MEL-2 melanoma): > 100 µM | TGI (PC-3 prostate): > 100 µM | TGI (NCI-H23 lung): > 100 µM | TGI (ACHN renal): > 100 µM | TGI (MDA-N): > 100 µM | TGI (SF-268 CNS): > 100 µM | TGI (U251 CNS): > 100 µM | TGI (786-0 renal): > 100 µM | TGI (EKVX NSCLC): > 100 µM | TGI (MCF7 breast): > 100 µM | TGI (IGROV1 ovarian): > 100 µM | TGI (M14 melanoma): > 100 µM | TGI (HCT-15 colon): > 100 µM | TGI (MOLT-4 leukemia): > 100 µM | TGI (RXF 393 renal): > 100 µM | TGI (HCC-2998 colon): > 100 µM | TGI (OVCAR-8 ovarian): > 100 µM | TGI (UACC-257 melanoma): > 100 µM | TGI (HCT-116 colon): > 100 µM | TGI (UACC-62 melanoma): > 100 µM | TGI (NCI-H226 lung): > 100 µM | TGI (BT-549 breast): > 100 µM | TGI (SN12C renal): > 100 µM | TGI (LOX IMVI melanoma): > 100 µM | TGI (OVCAR-5 ovarian): > 100 µM | TGI (NCI-H460 lung): > 100 µM | TGI (HS 578T breast): > 100 µM | TGI (SR leukemia): > 100 µM | TGI (RPMI-8226 leukemia): > 100 µM | TGI (KM12 colon): > 100 µM | TGI (K-562 leukemia): > 100 µM | TGI (SNB-19 CNS): > 100 µM | TGI (COLO 205 colon): > 100 µM | TGI (SK-MEL-5 melanoma): > 100 µM | TGI (CAKI-1 renal): > 100 µM | TGI (SK-OV-3 ovarian): > 100 µM | TGI (T-47D breast): > 100 µM | TGI (HL-60(TB) leukemia): > 100 µM | TGI (A549 NSCLC): > 100 µM | TGI (UO-31 renal): > 100 µM | TGI (TK-10 renal): > 100 µM | TGI (OVCAR-4 ovarian): > 100 µM | TGI (SK-MEL-28 melanoma): > 100 µM | TGI (SW-620 colon): > 100 µM | TGI (DU-145 prostate): > 100 µM | TGI (HOP-92 NSCLC): > 100 µM | TGI (NCI/ADR-RES ovarian): > 100 µM | TGI (NCI-H522 lung): > 100 µM | TGI (HT29 colon): > 100 µM

Cc1ccc2nc(-c3nccn3C)cc(C(=O)NC(C)CN(C)C)c2c1 (stereo unspecified)
TGI (MALME-3M melanoma): > 100 µM | TGI (MDA-MB-231 breast): > 100 µM | TGI (HOP-62 NSCLC): > 100 µM | TGI (MDA-MB-435): > 100 µM | TGI (SF-539 CNS): > 100 µM | TGI (A498 renal): > 100 µM | TGI (SK-MEL-2 melanoma): > 100 µM | TGI (PC-3 prostate): > 100 µM | TGI (NCI-H23 lung): > 100 µM | TGI (ACHN renal): > 100 µM | TGI (MDA-N): > 100 µM | TGI (SF-268 CNS): > 100 µM | TGI (U251 CNS): > 100 µM | TGI (786-0 renal): > 100 µM | TGI (EKVX NSCLC): > 100 µM | TGI (SNB-75 CNS): > 100 µM | TGI (MCF7 breast): > 100 µM | TGI (IGROV1 ovarian): > 100 µM | TGI (M14 melanoma): > 100 µM | TGI (HCT-15 colon): > 100 µM | TGI (RXF 393 renal): > 100 µM | TGI (OVCAR-8 ovarian): > 100 µM | TGI (UACC-257 melanoma): > 100 µM | TGI (HCT-116 colon): > 100 µM | TGI (UACC-62 melanoma): > 100 µM | TGI (NCI-H226 lung): > 100 µM | TGI (BT-549 breast): > 100 µM | TGI (SN12C renal): > 100 µM | TGI (LOX IMVI melanoma): > 100 µM | TGI (OVCAR-5 ovarian): > 100 µM | TGI (NCI-H460 lung): > 100 µM | TGI (HS 578T breast): > 100 µM | TGI (KM12 colon): > 100 µM | TGI (SNB-19 CNS): > 100 µM | TGI (COLO 205 colon): > 100 µM | TGI (SK-MEL-5 melanoma): > 100 µM | TGI (CAKI-1 renal): > 100 µM | TGI (T-47D breast): > 100 µM | TGI (HL-60(TB) leukemia): > 100 µM | TGI (A549 NSCLC): > 100 µM | TGI (UO-31 renal): > 100 µM | TGI (TK-10 renal): > 100 µM | TGI (SK-MEL-28 melanoma): > 100 µM | TGI (SW-620 colon): > 100 µM | TGI (DU-145 prostate): > 100 µM | TGI (HOP-92 NSCLC): > 100 µM | TGI (NCI/ADR-RES ovarian): > 100 µM | TGI (HT29 colon): > 100 µM

COc1cccc(C2c3cc4c(cc3OC(NNC(N)=O)C2C)OCO4)c1OC (stereo unspecified)
TGI (MALME-3M melanoma): 73.8 µM | TGI (SF-295 CNS): 43.3 µM | TGI (MDA-MB-231 breast): 81.6 µM | TGI (CCRF-CEM leukemia): > 100 µM | TGI (HOP-62 NSCLC): 57.5 µM | TGI (MDA-MB-435): 70.1 µM | TGI (SF-539 CNS): 37.5 µM | TGI (A498 renal): 51.1 µM | TGI (SK-MEL-2 melanoma): 52.1 µM | TGI (PC-3 prostate): 55 µM | TGI (NCI-H23 lung): 77.8 µM | TGI (ACHN renal): > 100 µM | TGI (MDA-N): 82.7 µM | TGI (SF-268 CNS): > 100 µM | TGI (U251 CNS): 68.2 µM | TGI (786-0 renal): 16.5 µM | TGI (EKVX NSCLC): > 100 µM | TGI (SNB-75 CNS): 59.3 µM | TGI (MCF7 breast): > 100 µM | TGI (IGROV1 ovarian): 83.2 µM | TGI (M14 melanoma): 40.6 µM | TGI (HCT-15 colon): 77.7 µM | TGI (MOLT-4 leukemia): 66.8 µM | TGI (RXF 393 renal): 49.9 µM | TGI (HCC-2998 colon): > 100 µM | TGI (OVCAR-8 ovarian): 17.9 µM | TGI (UACC-257 melanoma): 92.1 µM | TGI (OVCAR-3 ovarian): 50.2 µM | TGI (HCT-116 colon): 27.6 µM | TGI (UACC-62 melanoma): 53 µM | TGI (NCI-H226 lung): 76.1 µM | TGI (BT-549 breast): > 100 µM | TGI (SN12C renal): > 100 µM | TGI (LOX IMVI melanoma): 45.6 µM | TGI (OVCAR-5 ovarian): > 100 µM | TGI (NCI-H460 lung): 68 µM | TGI (HS 578T breast): 45.9 µM | TGI (SR leukemia): 18.8 µM | TGI (RPMI-8226 leukemia): 46.1 µM | TGI (KM12 colon): 62 µM | TGI (K-562 leukemia): 88 µM | TGI (SNB-19 CNS): > 100 µM | TGI (COLO 205 colon): 27.8 µM | TGI (SK-MEL-5 melanoma): 43.9 µM | TGI (CAKI-1 renal): 83.4 µM | TGI (SK-OV-3 ovarian): 85.3 µM | TGI (T-47D breast): > 100 µM | TGI (HL-60(TB) leukemia): 57.4 µM | TGI (A549 NSCLC): 56 µM | TGI (UO-31 renal): 86 µM | TGI (TK-10 renal): 86.3 µM | TGI (SK-MEL-28 melanoma): 72.7 µM | TGI (SW-620 colon): > 100 µM | TGI (DU-145 prostate): 83.1 µM | TGI (HOP-92 NSCLC): 57.8 µM | TGI (NCI-H522 lung): 61.5 µM | TGI (HT29 colon): 62.3 µM
